Assay results taken from patent publication US5332731A, “Cephalosporin derivatives” (Meiji Seika Kaisha, Ltd., priority 1989, dated 1994).
Converted amounts (≈) assume the structure as drawn.

What was measured:
Test in all cases: antibacterial activity, MIC by standard serial dilution method
Type in all cases: cell-based
Escherichia coli GN206 = tested on: Escherichia coli GN206
Text: (§1) Antibacterial activity of Compounds Nos. 1, 3, 5, 7, 9, 11, 13, 15, 17, 19, 21, 23, 25, 27, 29, 31, 33, 35 and 37 indentified hereinbefore which are the particular examples of the new cephalosporin derivative of general formula (I) according to this invention and which are in the form of the free carboxylic acid was estimated by determining the minimum inhibitory concentrations (MIC., μg/ml) of these compounds against a variety of bacteria according to a standard serial dilution method.

[1] = tested on: Serratia marcescens No. 1
Text: as §1

[2] = tested on: Marganella morganii 1510/S-1
Text: as §1

[3] = tested on: Klebsiella pneumoniae GN69
Text: as §1

Proteus vulgaris GN76 = tested on: Proteus vulgaris GN76
Text: as §1

[4] = tested on: Citrobacter freundii GN346/16
Text: as §1

[5] = tested on: Klebsiella pneumoniae PCI602
Text: as §1

[6] = tested on: Citrobacter freundii GN346
Text: as §1

[7] = tested on: Pseudomonas aeruginosa GN10362
Text: as §1

[8] = tested on: Escherichia coli NIHJ JC-2; conditions: NIHJJC2
Text: as §1

[9] = tested on: Proteus vulgaris GN76/C-1
Text: as §1

Escherichia coli 255 = tested on: Escherichia coli 255
Text: as §1

Escherichia coli 255/S-1 = conditions: 255/S1
Text: as §1

[10] = tested on: Enterobacter cloacae GN7471
Text: as §1

Marganella morganii 1510 = tested on: Marganella morganii 1510
Text: as §1

[11] = tested on: Escherichia coli W3630 RGN823; conditions: W3630RGN823
Text: as §1

[12] = tested on: Staphylococcus epidermidis ATCC14990
Text: as §1

[13] = tested on: Enterobacter hirae ATCC8043
Text: as §1

[14] = tested on: Staphylococcus aureus 209P JC-1
Text: as §1

[15] = tested on: Enterobacter cloacae G-0008; conditions: G0008
Text: as §1

[16] = tested on: Entrobacter faecalis W-73
Text: as §1

[17] = tested on: Serratia marcescens GN10857
Text: as §1

Row | Compound | MIC (Escherichia coli GN206) [µg/mL] | MIC [1] [µg/mL] | MIC [2] [µg/mL] | MIC [3] [µg/mL] | MIC (Proteus vulgaris GN76) [µg/mL] | MIC [4] [µg/mL] | MIC [5] [µg/mL] | MIC [6] [µg/mL] | MIC [7] [µg/mL] | MIC [8] [µg/mL] | MIC [9] [µg/mL] | MIC (Escherichia coli 255) [µg/mL] | MIC (Escherichia coli 255/S-1) [µg/mL] | MIC [10] [µg/mL] | MIC (Marganella morganii 1510) [µg/mL] | MIC [11] [µg/mL] | MIC [12] [µg/mL] | MIC [13] [µg/mL] | MIC [14] [µg/mL] | MIC [15] [µg/mL] | further results
1 | CO/N=C(\C(=O)NC1C(=O)N2C(C(=O)O)=C(SCC3CCCO3)CS[C@H]12)c1csc(N)n1 (some centres unmarked) [Compound No. 1, 7-[(Z)-2-(2-aminothiazol-4-yl)-2-methoxyiminoacetamido]-3-tetrahydrofurfurylthio-3-cephem-4-carboxylic acid] | 6.25 (≈ 12.5 µM) | 0.78 (≈ 1.56 µM) | 0.39 (≈ 0.781 µM) | 0.39 (≈ 0.781 µM) | 0.2 (≈ 0.4 µM) | 3.13 (≈ 6.27 µM) | 0.78 (≈ 1.56 µM) | > 100 | > 100 | 1.56 (≈ 3.12 µM) | 3.13 (≈ 6.27 µM) | 25 (≈ 50 µM) | 0.78 (≈ 1.56 µM) | 50 (≈ 100 µM) | 50 (≈ 100 µM) | 1.56 (≈ 3.12 µM) | 0.78 (≈ 1.56 µM) | 12.5 (≈ 25 µM) | 0.2 (≈ 0.4 µM) | 1.56 (≈ 3.12 µM) | MIC [16]: 100 µg/mL (≈ 200 µM); MIC [17]: 100 µg/mL (≈ 200 µM)
2 | CO/N=C(\C(=O)NC1C(=O)N2C(C(=O)O)=C(SC3CCOC3)CS[C@H]12)c1csc(N)n1 (some centres unmarked) [Compound No. 3, 7-[(Z)-2-(2-aminothiazol-4-yl)-2-methoxyiminoacetamido]-3-(tetrahydrofuran-3-yl)thio-3-cephem-4-carboxylic acid] | 12.5 (≈ 25.7 µM) | 12.5 (≈ 25.7 µM) | 0.2 (≈ 0.412 µM) | 0.2 (≈ 0.412 µM) | 0.1 (≈ 0.206 µM) | 3.13 (≈ 6.45 µM) | 0.2 (≈ 0.412 µM) | > 100 | > 100 | 0.39 (≈ 0.803 µM) | 1.56 (≈ 3.21 µM) | 50 (≈ 103 µM) | 0.39 (≈ 0.803 µM) | 50 (≈ 103 µM) | 25 (≈ 51.5 µM) | 0.78 (≈ 1.61 µM) | 0.39 (≈ 0.803 µM) | 12.5 (≈ 25.7 µM) | 0.2 (≈ 0.412 µM) | 12.5 (≈ 25.7 µM) | MIC [16]: > 100 µg/mL; MIC [17]: 100 µg/mL (≈ 206 µM)
3 | CO/N=C(\C(=O)NC1C(=O)N2C(C(=O)O)=C(SCC3COC(C)(C)O3)CS[C@H]12)c1csc(N)n1 (some centres unmarked) [Compound No. 5, 7-[(Z)-2-(2-aminothiazol-4-yl)-2-methoxyiminoacetamido]-3-(2,2-dimethyl-1,3-dioxolan-4-yl)methylthio-3-cephem-4-carboxylic acid] | 12.5 (≈ 23.6 µM) | 1.56 (≈ 2.95 µM) | 0.78 (≈ 1.47 µM) | 0.78 (≈ 1.47 µM) | 0.39 (≈ 0.736 µM) | 6.25 (≈ 11.8 µM) | 1.56 (≈ 2.95 µM) | > 100 | > 100 | 1.56 (≈ 2.95 µM) | 1.56 (≈ 2.95 µM) | 100 (≈ 189 µM) | 3.13 (≈ 5.91 µM) | 50 (≈ 94.4 µM) | 100 (≈ 189 µM) | 1.56 (≈ 2.95 µM) | 1.56 (≈ 2.95 µM) | 25 (≈ 47.2 µM) | 1.56 (≈ 2.95 µM) | 3.13 (≈ 5.91 µM) | MIC [16]: 50 µg/mL (≈ 94.4 µM); MIC [17]: 50 µg/mL (≈ 94.4 µM)
4 | CO/N=C(\C(=O)NC1C(=O)N2C(C(=O)O)=C(SC3CCOCC3)CS[C@H]12)c1csc(N)n1 (some centres unmarked) [Compound No. 7, 7-[(Z)-2-(2-aminothiazol-4-yl)-2-methoxyiminoacetamido]-3-(tetrahydropyran-4-yl)thio-3-cephem-4-carboxylic acid] | 12.5 (≈ 25 µM) | 0.78 (≈ 1.56 µM) | 0.2 (≈ 0.4 µM) | 0.78 (≈ 1.56 µM) | 0.2 (≈ 0.4 µM) | 6.25 (≈ 12.5 µM) | 0.39 (≈ 0.781 µM) | > 100 | > 100 | 0.78 (≈ 1.56 µM) | 0.78 (≈ 1.56 µM) | 50 (≈ 100 µM) | 0.78 (≈ 1.56 µM) | 50 (≈ 100 µM) | 50 (≈ 100 µM) | 1.56 (≈ 3.12 µM) | 0.39 (≈ 0.781 µM) | 6.25 (≈ 12.5 µM) | 0.78 (≈ 1.56 µM) | 0.78 (≈ 1.56 µM) | MIC [16]: > 100 µg/mL; MIC [17]: 100 µg/mL (≈ 200 µM)
5 | CO/N=C(\C(=O)NC1C(=O)N2C(C(=O)O)=C(SCC3CCOC(C)(C)O3)CS[C@H]12)c1csc(N)n1 (some centres unmarked) [Compound No. 9, 7-[(Z)-2-(2-aminothiazol-4-yl)-2-methoxyiminoacetamido]-3-(2,2-dimethyl-1,3-dioxan-4-yl)methylthio-3-cephem-4-carboxylic acid] | 12.5 (≈ 23 µM) | 3.13 (≈ 5.76 µM) | 1.56 (≈ 2.87 µM) | 1.56 (≈ 2.87 µM) | 0.78 (≈ 1.43 µM) | 6.25 (≈ 11.5 µM) | 3.13 (≈ 5.76 µM) | > 100 | > 100 | 3.13 (≈ 5.76 µM) | 3.13 (≈ 5.76 µM) | 100 (≈ 184 µM) | 6.25 (≈ 11.5 µM) | 50 (≈ 92 µM) | 100 (≈ 184 µM) | 1.56 (≈ 2.87 µM) | 1.56 (≈ 2.87 µM) | 25 (≈ 46 µM) | 1.56 (≈ 2.87 µM) | 3.13 (≈ 5.76 µM) | MIC [16]: 100 µg/mL (≈ 184 µM); MIC [17]: 50 µg/mL (≈ 92 µM)
